What follows are compounds tested against T1, PD-1/PD-L1 (Homo sapiens, UniProt Q9NZQ7) (assay: PD-1/PD-L1 Homogenous Time-Resolved Fluorescence (HTRF) binding assay). Conditions: PD-L1-His 10 nM, PD-1-Ig 20 nM; value given as range class; read-out: Range or IC50.
T1 construct: made in house; host or cells: HEK293T
Method in brief: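 Binding measured in dPBS with 0.1% BSA and 0.05% Tween-20, detected by HTRF with europium cryptate anti-Ig (1 nM final) and APC anti-His (20 nM final) added over the binding reaction. Counter-assays used human PD-1-Ig/PD-L2-His (20 and 5 nM) and CD80-His/PD-L1-Ig (100 and 10 nM).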

T1 sequence (Q9NZQ7 with tags, fused parts or gaps): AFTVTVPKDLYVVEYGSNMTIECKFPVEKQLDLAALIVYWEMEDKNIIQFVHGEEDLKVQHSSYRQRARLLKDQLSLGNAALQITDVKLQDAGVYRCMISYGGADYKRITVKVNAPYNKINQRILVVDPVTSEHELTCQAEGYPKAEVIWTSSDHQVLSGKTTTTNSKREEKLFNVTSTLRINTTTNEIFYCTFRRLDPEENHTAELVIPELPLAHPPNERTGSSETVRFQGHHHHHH

`Cc1c(COc2cc(OCc3cncc(C#N)c3)c(CN3CCCC[C@H]3C(=O)O)cc2Cl)cccc1-c1cccc(OCCCN2CCCC[C@H]2C(=O)O)c1C` [Example 2268, (2S)-1-(3-(3′-((4-(((S)-2-carboxypiperidin-1-yl)methyl)-2-chloro-5-((5-cyanopyridin-3-yl)methoxy)phenoxy)methyl)-2,2′-dimethylbiphenyl-3-yloxy)propyl)piperidine-2-carboxylic Acid] and `Cc1c(COc2cc(OCc3cncc(C#N)c3)c(CN3CCCC[C@H]3C(=O)O)cc2Cl)cccc1-c1cccc(OCCCN2CCC[C@H](O)C2)c1C` [Example 2224, (2S)-1-(5-chloro-2-((5-cyanopyridin-3-yl)methoxy)-4-((3′-(3-((S)-3-hydroxypiperidin-1-yl)propoxy)-2,2′-dimethylbiphenyl-3-yl)methoxy)benzyl)piperidine-2-carboxylic Acid] fall in the same range of IC50: 0.21 to 10 nM for the first, 0.21 to 10 nM for the second.

`CC(CO)(CO)NCc1cc(Cl)c(OCc2cccc(-c3cccc(OCCCN4CC[C@@H](O)C4)c3Cl)c2Cl)cc1OCCC(F)(F)F` [Example 2107, (R)-2-((5-chloro-4-((2,2′-dichloro-3′-(3-(3-hydroxypyrrolidin-1-yl)propoxy)-[1,1′-biphenyl]-3-yl)methoxy)-2-(3,3,3-trifluoropropoxy)benzyl)amino)-2-methylpropane-1,3-diol] and `CC(C)=CCOc1cc(OCc2cccc(-c3cccc(OCCCN4CC[C@@H](O)C4)c3C)c2Cl)c(Cl)cc1CNC(CO)CO` [Example 2321, (R)-2-((5-chloro-4-((2-chloro-3′-(3-(3-hydroxypyrrolidin-1-yl)propoxy)-2′-methyl-[1,1′-biphenyl]-3-yl)methoxy)-2-((3-methylbut-2-en-1-yl)oxy)benzyl)amino)propane-1,3-diol] fall in the same range of IC50: 0.21 to 10 nM for the first, 0.21 to 10 nM for the second.

`COC(=O)C1CCN(CCCOc2cccc(-c3cccc(COc4cc(OCc5cncc(C#N)c5)c(CNC[C@H](O)CO)cc4Cl)c3C)c2Cl)CC1` [Example 2027, (S)-methyl 1-(3-((2-chloro-3′-((2-chloro-5-((5-cyanopyridin-3-yl)methoxy)-4-(((2,3-dihydroxypropyl)amino)methyl)phenoxy)methyl)-2′-methyl-[1,1′-biphenyl]-3-yl)oxy)propyl)piperidine-4-carboxylate] and `CC(=O)NC1CCN(CCCOc2cccc(-c3cccc(COc4cc(OCc5cncc(C#N)c5)c(CNC(CO)CO)cc4Cl)c3C)c2Cl)C1` (stereo not shown) [Example 2052, N-(1-(3-((2-chloro-3′-((2-chloro-5-((5-cyanopyridin-3-yl)methoxy)-4-(((1,3-dihydroxypropan-2-yl)amino)methyl)phenoxy)methyl)-2′-methyl-[1,1′-biphenyl]-3-yl)oxy)propyl)pyrrolidin-3-yl)acetamide] fall in the same range of IC50: 0.21 to 10 nM for the first, 0.21 to 10 nM for the second.

`CNC(=O)c1cccc(-c2cccc(COc3cc(OCc4cc(F)cc(F)c4)c(CN4C[C@@H](O)C[C@H]4C(=O)O)cc3Cl)c2C)c1C` [Example 4026, (2S,4S)-1-(5-chloro-2-((3,5-difluorobenzyl)oxy)-4-((2,2′-dimethyl-3′-(methylcarbamoyl)-[1,1′-biphenyl]-3-yl)methoxy)benzyl)-4-hydroxypyrrolidine-2-carboxylic Acid] and `Cc1c(COc2cc(OCc3cncc(C#N)c3)c(CN3C[C@@H](O)C[C@H]3C(=O)O)cc2Cl)cccc1-c1cccc(C(=O)N(C)C)c1C` [Example 4033, (2S,4S)-1-(5-chloro-2-((5-cyanopyridin-3-yl)methoxy)-4-((3′-(dimethylcarbamoyl)-2,2′-dimethyl-[1,1′-biphenyl]-3-yl)methoxy)benzyl)-4-hydroxypyrrolidine-2-carboxylic Acid] fall in the same range of IC50: 100 to 2000 nM for the first, 100 to 2000 nM for the second.

`Cc1c(COc2cc(OCc3cncc(C#N)c3)c(CN(CCO)[C@@](C)(CO)C(=O)O)cc2Cl)cccc1-c1cccc(OCCCN2CC[C@@H](O)C2)c1C` [Example 4111, (S)-2-((5-chloro-2-((5-cyanopyridin-3-yl)methoxy)-4-((3′-(3-((R)-3-hydroxypyrrolidin-1-yl)propoxy)-2,2′-dimethyl-[1,1′-biphenyl]-3-yl)methoxy)benzyl)(2-hydroxyethyl)amino)-3-hydroxy-2-methylpropanoic Acid] and `Cc1c(COc2cc(OCc3cncc(C#N)c3)c(CNC(C)(CO)CO)cc2Cl)cccc1-c1cccc(OCCCN2CCC(CO)CC2)c1C` [Example 2288, 5-((4-chloro-2-(((1,3-dihydroxy-2-methylpropan-2-yl)amino)methyl)-5-((3′-(3-(4-(hydroxymethyl)piperidin-1-yl)propoxy)-2,2′-dimethyl-[1,1′-biphenyl]-3-yl)methoxy)phenoxy)methyl)nicotinonitrile] fall in the same range of IC50: 0.21 to 10 nM for the first, 0.21 to 10 nM for the second.

First: Cc1c(COc2cc(OCc3cncc(C#N)c3)c(CNCCCN(C)C)cc2Cl)cccc1-c1cccc(OCCCN2CCC(O)C2)c1 (stereo in doubt) [Example 3001, (R)-5-((4-chloro-2-(((3-(dimethylamino)propyl)amino)methyl)-5-((3′-(3-(3-hydroxypyrrolidin-1-yl)propoxy)-2-methyl-[1,1′-biphenyl]-3-yl)methoxy)phenoxy)methyl)nicotinonitrile]
Second: C=CC(=O)NCCNCc1cc(Cl)c(OCc2cccc(-c3cccc(OCCCN4CC[C@@H](O)C4)c3C)c2C)cc1OCc1cncc(S(C)(=O)=O)c1 [Example 1034, (R)—N-(2-((5-chloro-4-((3′-(3-(3-hydroxypyrrolidin-1-yl)propoxy)-2,2′-dimethyl-[1,1′-biphenyl]-3-yl)methoxy)-2-((5-(methylsulfonyl)pyridin-3-yl)methoxy)benzyl)amino)ethyl)acrylamide]
The IC50 of the first is lower: 0.21 to 10 nM for the first, 10 to 100 nM for the second.

First: Cc1c(COc2cc(OCc3cncc(C#N)c3)c(CN3CCCC[C@H]3C(=O)Oc3ccc([N+](=O)[O-])cc3)cc2Cl)cccc1-c1cccc(OCCCN2CC[C@@H](O)C2)c1C [Example 2370, 4-nitrophenyl (S)-1-(5-chloro-2-((5-cyanopyridin-3-yl)methoxy)-4-((3′-(3-((R)-3-hydroxypyrrolidin-1-yl)propoxy)-2,2′-dimethyl-[1,1′-biphenyl]-3-yl)methoxy)benzyl)piperidine-2-carboxylate]
Second: Cc1c(COc2cc(OCc3cncc(C#N)c3)c(CN3CCCC[C@H]3C(=O)O)cc2Cl)cccc1-c1cccc(OCCCN2[C@@H]3CC[C@H]2COC3)c1C [Example 3051, (S)-1-(4-((3′-(3-((1R,5S)-3-oxa-8-azabicyclo[3.2.1]octan-8-yl)propoxy)-2,2′-dimethyl-[1,1′-biphenyl]-3-yl)methoxy)-5-chloro-2-((5-cyanopyridin-3-yl)methoxy)benzyl)piperidine-2-carboxylic Acid]
The IC50 of the first is higher: 10 to 100 nM for the first, 0.21 to 10 nM for the second.

`Cc1c(OCCCN2CC[C@@H](O)C2)cccc1-c1cccc(COc2cc(OCC(=O)N(C)C)c(CNC(CO)CO)cc2Cl)c1Cl` [Example 2317, (R)-2-(4-chloro-5-((2-chloro-3′-(3-(3-hydroxypyrrolidin-1-yl)propoxy)-2′-methyl-[1,1′-biphenyl]-3-yl)methoxy)-2-(((1,3-dihydroxypropan-2-yl)amino)methyl)phenoxy)-N,N-dimethylacetamide] and `Cc1c(OCCCN2CC[C@@H](O)C2)cccc1-c1cccc(COc2cc(OCc3cncc(C#N)c3)c(CN(CCc3cncc(C#N)c3)C(CO)CO)cc2Cl)c1Cl` [Example 2312, (R)-5-(2-((5-chloro-4-((2-chloro-3′-(3-(3-hydroxypyrrolidin-1-yl)propoxy)-2′-methyl-[1,1′-biphenyl]-3-yl)methoxy)-2-((5-cyanopyridin-3-yl)methoxy)benzyl)(1,3-dihydroxypropan-2-yl)amino)ethyl)nicotinonitrile] fall in the same range of IC50: 0.21 to 10 nM for the first, 0.21 to 10 nM for the second.

`Cc1c(COc2cc(OCc3cncc(C#N)c3)c(CN[C@H](CO)C(=O)O)cc2Cl)cccc1-c1cccc(OCCCN2CCC(O)(C(=O)O)CC2)c1C` [Example 1036, (R)-1-(3-((3′-((4-(((1-carboxy-2-hydroxyethyl)amino)methyl)-2-chloro-5-((5-cyanopyridin-3-yl)methoxy)phenoxy)methyl)-2,2′-dimethyl-[1,1′-biphenyl]-3-yl)oxy)propyl)-4-hydroxypiperidine-4-carboxylic Acid] and `Cc1c(COc2cc(OCc3cncc(C#N)c3)c(CN[C@H](CO)C(=O)O)cc2Cl)cccc1-c1cccc(OCCCN2CCC(CO)(C(=O)O)C2)c1C` (stereo partly drawn) [Example 1052, 1-(3-((3′-((4-((((R)-1-carboxy-2-hydroxyethyl)amino)methyl)-2-chloro-5-((5-cyanopyridin-3-yl)methoxy)phenoxy)methyl)-2,2′-dimethyl-[1,1′-biphenyl]-3-yl)oxy)propyl)-3-(hydroxymethyl)pyrrolidine-3-carboxylic Acid] fall in the same range of IC50: 0.21 to 10 nM for the first, 0.21 to 10 nM for the second.

First: Cc1c(COc2cc(OCc3cncc(S(C)(=O)=O)c3)c(CN3CCCC[C@H]3C(=O)O)cc2Cl)cccc1-c1cccc(OCCCN2CCC(CO)(C(=O)O)C2)c1Cl (single isomer, unassigned) [Example 1065]
Second: Cc1c(COc2cc(OCc3cncc(C#N)c3)c(CN3CCCC[C@H]3C(=O)O)cc2Cl)cccc1-c1cccc(OCCCN2CCC(CO)(C(=O)O)CC2)c1C [Example 1110, (S)-1-(4-((3′-(3-(4-carboxy-4-(hydroxymethyl)piperidin-1-yl)propoxy)-2,2′-dimethyl-[1,1′-biphenyl]-3-yl)methoxy)-5-chloro-2-((5-cyanopyridin-3-yl)methoxy)benzyl)piperidine-2-carboxylic Acid]
The IC50 of the first is lower: 0.21 to 10 nM for the first, 10 to 100 nM for the second. The first is the more potent here.

First: Cc1c(OCCCN2CCCCC2)cccc1-c1cccc(COc2cc(OCc3cncc(C#N)c3)c(CNC(C)(CO)CO)cc2Cl)c1Cl [Example 2308, 5-((4-chloro-5-((2-chloro-2′-methyl-3′-(3-(piperidin-1-yl)propoxy)-[1,1′-biphenyl]-3-yl)methoxy)-2-(((1,3-dihydroxy-2-methylpropan-2-yl)amino)methyl)phenoxy)methyl)nicotinonitrile]
Second: Cc1c(COc2cc(OCc3cncc(C#N)c3)c(CN[C@@H](CO)C(=O)O)cc2Cl)cccc1-c1cccc(C(=O)N2CCOCC2)c1C [Example 4055, (5-chloro-2-((5-cyanopyridin-3-yl)methoxy)-4-((2,2′-dimethyl-3′-(morpholine-4-carbonyl)-[1,1′-biphenyl]-3-yl)methoxy)benzyl)-L-serine]
The IC50 of the first is lower: 0.21 to 10 nM for the first, 10 to 100 nM for the second. The first is the more potent here.

Source: patent publication US10745382B2 (BRISTOL-MYERS SQUIBB COMPANY, priority 2015, dated 2020)
